The source of these data is patent publication US8017350B2, “Glimepiride- and insulin-induced glycosylphosphatidylinositol-specific phospholipase C regulation” (Sanofi-Aventis Deutschland GmbH, priority 2004, dated 2011).

Data set [1] concerns the target phospholipase A2 (honey bee venom) (Apis mellifera, UniProt P00630). Format: biochemical. Particulars: 50 μM.
In data set [2] the test system is isolated rat adipocytes. In words: isoproterenol-induced lipolysis (glycerol release). The data set is classed as cell-based. How it is done: Electroporation was performed as described in “Müller, G. et al., (2000) Mol. Cell. Biol. 20: 4708-4723”. Lipolysis was determined as release of glycerol or fluorescent NBD-FA from prelabeled and isoproterenol-stimulated adipocytes as described in “Müller, G. et al., (2003) Biochimie 85: 1245-1256”. Gce1 was detected by photolabeling of solubilized plasma membranes or hc/lcDIGs (10-50 μg protein) with 8-N3—[^32P]cAMP and subsequent phosphorimaging as described in “Müller, G. et al., (1994) Biochemistry 33: 12149-12159”. 5′-Nuc, aP and AChE activities were measured according to “Eliakim, R. et al., (1990) Biochim. Biophys. Acta 1355: 293-302”. Protein was determined using the BCA protein determination kit from Pierce (Rockford, Ill.) and BSA as calibration standard. SDS-PAGE was performed using precast gels (Novex, San Diego, Calif.; 10% Bis-Tris resolving gel, morpholinopropanesulfonic acid-SDS running buffer). Lumiimages were evaluated on a LumiImager using LumiImager software (Roche Diagnostics). Phosphor- and fluorescence images were processed and quantified using the Storm 860 PhosphorImager system (Molecular Dynamics, Gelsenkirchen, Germany). Figures were constructed using the ADOBE PHOTOSHOP software (Adobe Systems, Mountain View, Calif.).
FIG. 8: Effect of GPI-2350 on the glimepiride/insulin-induced metabolic activity. […]

A short description of data set [3]: Stability of compound 3. Format: physicochemical. Particulars: 4° C. How it is done:
As starting material, racemic 1,4,5,6-tetra-O-benzyl-myo-inositol (hereinafter: compound 1) was prepared by a procedure as disclosed in “Zhai, H.-X. et al. (1995) Tetrahedron Lett. 36: 7403-7406”. Compound 1 was then phosphorylated with dodecylphosphonic dichloride in the presence of triethylamine and dimethyl-aminopyridine to yield tetra-O-benzyl-myo-inositol-1,2-cyclo-dodecylphosphonic acid (hereinafter: compound 2). By catalytic hydrogenation with 10% Pd on charcoal, compound 2 was debenzylated to myo-inositol-1,2-cyclo-dodecylphosphonic acid (hereinafter: compound 3 or GPI-2350) as a mixture of diastereomers. For synthesis of compound 2 (FIG. 1), 1 g (1.8 mmol) of compound 1 was dissolved in 60 ml of methylene chloride and 1 ml of triethylamine; 200 mg dimethyl-aminopyridine and 1 g ([…]) of dodecylphosphonic dichloride were added. This reaction solution was allowed to stand (45 min, room temperature). Then 50 ml of ethyl acetate were added and the mixture was filtered on silica gel. After concentration of the solvent, the residue was purified by flash chromatography (n-heptane/ethyl acetate, 1/1, by vol.). Yield of compound 2: 580 mg (43%) of a white amorphous solid. TLC: n-heptane/ethyl acetate (1/1, by vol.), Rf=0.7. MS: (M+Li)^+=761.4, calculated […], M=754.9. […] MS: (M+Li)^+=401.2, calculated C18H35O7P, M=394.4.

The test system of data set [4] is lipolysis, rat adipocytes. The data set is described as follows: Isoproterenol-induced lipolysis in rat adipocytes. Particulars: GPI-2350 50 μM. The data set is classed as cell-based. Here is the method:
Electroporation was performed as described in “Müller, G. et al., (2000) Mol. Cell. Biol. 20: 4708-4723”. Lipolysis was determined as release of glycerol or fluorescent NBD-FA from prelabeled and isoproterenol-stimulated adipocytes as described in “Müller, G. et al., (2003) Biochimie 85: 1245-1256”. Gce1 was detected by photolabeling of solubilized plasma membranes or hc/lcDIGs (10-50 μg protein) with 8-N3—[^32P]cAMP and subsequent phosphorimaging as described in “Müller, G. et al., (1994) Biochemistry 33: 12149-12159”. 5′-Nuc, aP and AChE activities were measured according to “Eliakim, R. et al., (1990) Biochim. Biophys. Acta 1355: 293-302”. Protein was determined using the BCA protein determination kit from Pierce (Rockford, Ill.) and BSA as calibration standard. SDS-PAGE was performed using precast gels (Novex, San Diego, Calif.; 10% Bis-Tris resolving gel, morpholinopropanesulfonic acid-SDS running buffer). Lumiimages were evaluated on a LumiImager using LumiImager software (Roche Diagnostics). Phosphor- and fluorescence images were processed and quantified using the Storm 860 PhosphorImager system (Molecular Dynamics, Gelsenkirchen, Germany). Figures were constructed using the ADOBE PHOTOSHOP software (Adobe Systems, Mountain View, Calif.). […]

Data set [5] relates to glucose transport, rat adipocytes. In words: Glucose transport in rat adipocytes. Format: cell-based. Conditions: GPI-2350 50 μM. Here is the method: Glucose transport was determined as described in “Müller, G. et al., (1994) J. Cell Biol. 126: 1267-1276” by incubation of 10,000-20,000 washed adipocytes with 2-deoxy-D[2,6-^3H]glucose at 50 μM final conc. (0.33 μCi/ml) in 50-μl portions for 20 min at 37° C. in the absence or presence of 20 μM cytochalasin B.
Subsequently, we studied whether the differential effects of GPI-PLC inhibition on IRS-1 tyrosine phosphorylation in response to insulin and glimepiride is reflected in their metabolic activity in insulin target cells. For this, isolated rat adipocytes were pretreated with GPI-2350 prior to challenge with either stimulus, and then assayed for glucose transport and isoproterenol-induced lipolysis (FIG. 8). […] These differential effects of GPI-PLC inhibition were confirmed by analysis of the effect of GPI-2350 on the inhibition of isoproterenol-induced lipolysis by glimepiride and insulin when measured as release of NBD-FA instead of glycerol from rat adipocytes prelabeled with this fluorescent fatty acid derivative (FIG. 9).
Table 3: Isolated rat adipocytes were incubated in the presence of methyl-β-cyclodextrin (m-β-CD, 10 mM, 50 min), CBDP (300 μM, electroporation, followed by washing and subsequent incubation for 30 min), PIG41 (10 μM, 15 min), sodium orthovanadate (1 mM, 15 min), trypsin (10 μg/ml, 15 min followed by treatment with 0.5 M NaCl and subsequent washing) and N-ethylmaleimide (1 mM, 5 min followed by addition of DTT). After addition of GPI-2350 (50 μM final conc.) to one half of the adipocyte suspension and further incubation (60 min, 37° C.), portions of the cells were assayed for 5′-Nuc activity in the isolated IcDIGs. The increase in 5′-Nuc during the basal incubation was set at 100 arb. units. Other portions of the cells (after 15 min incubation) were assayed for glucose transport which was set at 100 arb. units for the basal incubation. Means+SD of at least 3 independent cell incubations with activity measurements in triplicate each are given.
FIG. 8: Effect of GPI-2350 on the glimepiride/insulin-induced metabolic activity. Isolated rat adipocytes were treated (5 min, 37° C.) without or with GPI-2350 (Panel A, 50 μM; Panel B, increasing conc.; Panel C, 5 μM, 50 μM) and then incubated (15 min, 37° C.) in the absence or presence of insulin (Ins, 10 nM) or glimepiride (Gli, 20 μM or increasing conc.) as indicated. The adipocytes were then assayed for glucose transport and isoproterenol-induced lipolysis. The activity is given relative to the absence of GPI-2350 in the control reaction (Panels A, basal) or in the insulin- and glimepiride-stimulated state (Panels B and C, set at 100). Means+SD of at least 5 independent cell incubations with activity measurements in triplicate each are given.

Sequence of phospholipase A2 (honey bee venom) (P00630 34-167 limits assumed): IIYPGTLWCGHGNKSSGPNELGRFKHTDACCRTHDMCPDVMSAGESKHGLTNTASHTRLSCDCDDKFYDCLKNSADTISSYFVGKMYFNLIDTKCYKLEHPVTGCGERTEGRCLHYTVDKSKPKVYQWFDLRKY

Take `CCCCCCCCCCCCP1(=O)O[C@@H]2[C@H](O)[C@@H](O)[C@H](O)[C@@H](O)[C@@H]2O1` (stereo partly drawn) [GPI-2350, myo-inositol-1,2-cyclo-dodecylphosphonic acid]: the “effect on PLA2” value in data set [1] was “not significantly affected”. For the same molecule, the “effect on insulin inhibition of lipolysis” value in data set [2] is reported as “only marginally reduced”. Moreover, the “effect on inhibition of lipolysis in response to glimepiride” value in data set [2] (50 μM) is “almost complete blockade”. For the same molecule, the “stability as dried amorphous solid” value in data set [3] is “as dried amorphous solid for years at 4 °C”. Further, the “glimepiride inhibition of lipolysis with GPI-2350” value in data set [4] is listed as “to lower than control values”. The “glimepiride-stimulated glucose transport with GPI-2350” value in data set [5] is “to lower than control values”.
